Here are results for 1 molecule from patent US12595239B2, “Substituted isoxazoline derivatives” (BASF SE, priority 2021, dated 2026).

One assay deals with Bemisia argentifolii. The assay can be described thus: B.12 Silverleaf Whitefly (adults), cotton plant spray test. It counts as in vivo. To be noted: 72 h, 3 days after treatment, read-out: mortality in comparison with untreated controls. On the procedure:
The active compounds were formulated by a Tecan liquid handler in 100% cyclohexanone as a 10,000-ppm solution supplied in tubes. The 10,000-ppm solution was serially diluted in 100% cyclohexanone to make interim solutions. These served as stock solutions for which final dilutions were made by the Tecan in 50% acetone:50% water (v/v) into 5 or 10 ml glass vials. A nonionic surfactant (Kinetic®) was included in the solution at a volume of 0.01% (v/v). The vials were then inserted into an automated electrostatic sprayer equipped with an atomizing nozzle for application to plants/insects. Cotton plants at the cotyledon stage (one plant per pot) were sprayed by an automated electrostatic plant sprayer equipped with an atomizing spray nozzle. The plants were dried in the sprayer fume hood and then removed from the sprayer. Each pot was placed into a plastic cup and about 10 to 12 whitefly adults (approximately 3-5 days old) were introduced. The insects were collected using an aspirator and a nontoxic Tygon® tubing connected to a barrier pipette tip. The tip, containing the collected insects, was then gently inserted into the soil containing the treated plant, allowing insects to crawl out of the tip to reach the foliage for feeding. Cups were covered with a reusable screened lid. Test plants were maintained in a growth room at about 25° C. and about 20-40% relative humidity for 3 days, avoiding direct exposure to fluorescent light (14:10 light:dark photoperiod) to prevent trapping of heat inside the cup. Mortality was assessed 3 days after treatment, compared to untreated control plants.

The next assay concerns Nephotettix virescens. In words: B.9 Rice Green Leafhopper, rice seedling spray test. The conditions noted are these: adults, after 72 hours, read-out: mortality in comparison with untreated controls. It counts as in vivo. On the procedure:
Four to five-week old rice seedlings with cut upper leaf portion were cleaned and washed 24 hours before spraying. The active compounds were formulated in 1:1 acetone:water (vol:vol), and 0.01% vol/vol surfactant (Kinetic) was added. Potted rice seedlings were sprayed with 5-6 ml test solution, air dried, covered with Mylar cages and inoculated with 10 adults. Treated rice plants were kept at about 28-29° C. and relative humidity of about 50-60%. Percent mortality was recorded after 72 hours.

For `O=C(Nc1ncc(F)cc1F)c1cc(OC2=NOC(c3cc(Cl)c(F)c(Cl)c3)(C(F)(F)F)C2)ccc1Cl` (centres unmarked) [II-8, 2-chloro-5-[[5-(3,5-dichloro-4-fluoro-phenyl)-5-(trifluoromethyl)-4H-isoxazol-3-yl]oxy]-N-(3,5-difluoro-2-pyridyl)benzamide], the mortality at 300 ppm in the assay on Bemisia argentifolii and with Nephotettix virescens was at least 75% throughout.
